Assays:
[1] = Color and clarity of solution test; assay type: physicochemical; settings: 0.5 g dissolved in 10 ml dilute ammonia solution (1→100)
Description: “Color and clarity of solution test” is particularly important, and also a required inspection item for active ingredients used in preparations for injection. Weigh 0.5 g of the crystalline form A obtained in example 5, dissolve it with 10 ml dilute ammonia solution (1→100), and the solution may be clear and colorless. If the solution is colored, compare it with the yellow 2 #standard color solution (Method 1, General Principles 0901, the Chinese Pharmacopoeia), and the former should not be intensely colored than the latter. If the solution is turbid, compare it with the turbidity 0.5 #standard solution (Method 1, General Principles 0902, the Chinese Pharmacopoeia), and the former should not be more intensely turbid than the latter.

[2] = Measurement of particle size and specific surface area; assay type: physicochemical
Description: For the purpose of this application, “X10” represents the particle diameter corresponding to 10% of the particle size distribution, in other words, cumulative 10% of the particles in all the tested particles are smaller than X10; “X50” represents the particle size corresponding to 50% of the particle size distribution, in other words, cumulative 50% of the particles in all the tested particles are smaller than X50; “X90” represents the particle size corresponding to 90% of the particle size distribution, in other words, cumulative 90% of the particles in all the tested particles are smaller than X90.
Sv and Sm denote specific surface areas, i.e., total surface area of a material per unit volume (Sv) and total surface area of a material per unit of mass (Sm) respectively.
Particle size distribution is determined according to the laser method using the instrument below: full-automatic dry-wet laser particle sizer, VIBRI (HELOSBR).

[3] = tested on: liver-injury animal models induced by different hepatotoxic agents; settings: cited from earlier work
[4] = particle size distribution, laser method
[5] = liver-injury animal models induced by different hepatotoxic agents

With `CC1(C)[C@@H](O[C@H]2O[C@H](C(=O)[O-])[C@@H](O)[C@H](O)[C@H]2O[C@@H]2O[C@H](C(=O)[O-])[C@@H](O)[C@H](O)[C@H]2O)CC[C@]2(C)[C@H]3C(=O)C=C4[C@H]5C[C@@](C)(C(=O)O)CC[C@]5(C)CC[C@@]4(C)[C@]3(C)CC[C@@H]12.[Mg+2]` [crystalline form A, magnesium isoglycyrrhizinate] the clarity test ([1]; compared with turbidity 0.5# standard solution) was “The solution is clear, and less”, the “color of solution test” value ([1]; compared with yellow 2# standard color solution) was “The solution is colorless, and less” and the X10 [2, 4] was 6.19 μm. The X50 [2, 4] was 42.18 μm, the X90 [2, 4] was 91.80 μm and the Sm ([2]; specific surface area per unit of mass) was 0.64 m^2/g. It also gave a Sv ([2]; specific surface area per unit volume) of 0.44 m^2/cm^3.
In the case of `CC1(C)[C@@H](O[C@H]2O[C@H](C(=O)[O-])[C@@H](O)[C@H](O)[C@H]2O[C@@H]2O[C@H](C(=O)[O-])[C@@H](O)[C@H](O)[C@H]2O)CC[C@]2(C)[C@H]3C(=O)C=C4[C@H]5C[C@@](C)(C(=O)O)CC[C@]5(C)CC[C@@]4(C)[C@]3(C)CC[C@@H]12.[Mg+2]` [magnesium isoglycyrrhizinate], the “hepatocyte degeneration and necrosis and inflammatory cell infiltration” value [3, 5] is listed as “alleviate”, the hepatocyte regeneration [3, 5] is listed as “promote” and the “serum transaminase elevation in animals” value [3, 5] is listed as “significantly inhibit”. The “effect against liver injury compared with natural glycyrrhizic acids” value ([3]; versus natural glycyrrhizic acids) was “obviously superior”.

Reference: patent US11292809B2, “Crystals of glycyrrhizic acid derivatives, crystalline compositions, pharmaceutical compositions and uses thereof” (CHIA TAI TIANQING PHARMACEUTICAL GROUP CO., LTD., priority 2018, dated 2022)
